{"source": "patent US20250288520A1", "about": "“Microemulsion Pharmaceutical Composition For Treatment Of Disorders Of The Anterior Segment Of The Eye” (SIFI S.P.A., priority 2022, published 2025)", "assay": "Bioavailability study in NZW rabbits after single dose topical administration, sorafenib content by LC-MS", "assay_type": "in vivo", "protocol": "Bioavailability study in NZW rabbits after single dose administration (50 μL topical administration in the right eye) was conducted and content of sorafenib tosylate in plasma (PL), bulbar conjunctivae (BCJ), aqueous humor (AH), cornea (C), vitreous (V), retina (R), and sclera (SC) was evaluated after treatment at t=5, 15, 30, 60, 90, 120 min by LC-MS.\nThirty-six NZW male rabbits, weighing approximately 2 kg, were used in this study. The study was conducted in accordance with GLP standards at the test facility IRIS PHARMA. All animals were treated according to the Directive 2010/63/UE European Convention for the Protection of Vertebrate Animals used for Experimental and Other Scientific Purposes and to the ARVO Statement for the Use of Animals in Ophthalmic and Vision Research. All animals were housed individually in standard cages under identical temperature (18° C.±3° C.), relative humidity (45%-80%), and controlled enrichment conditions and exposed to a 12-h light and darkness cycle in continuously ventilated rooms (15-20 air volumes per hour). They received a standard dry pellet diet and water ad libitum. Only animals with no macroscopic ocular signs of irritation were involved in this study and randomly divided in six time-point groups of 6 animals each (Table 3).\nAnimals received a single 50 μL topical administration in the right eye and at the time-points listed in Table 3 they were anesthetized by an intramuscular injection of a mix xylazine/ketamine before euthanasia by an intracardiac injection of overdosed pentobarbital. The whole blood in EDTA anticoagulant tubes were sampled by intracardiac puncture, and plasma was prepared and frozen at −23° C.±7° C. Immediately after euthanasia, BCJ, AH, C, V, R, and SC were quickly and carefully dissected from both eyes and weighed, frozen in dry ice and at −23° C.±7° C. until assay. Content of sorafenib was determined in R and PL of both eyes in priority and in AH, BCJ, C, V and SC of both eyes following the rapid resolution liquid chromatography/tandem mass spectrometry method.", "data": [{"smiles": "CNC(=O)c1cc(Oc2ccc(NC(=O)Nc3ccc(Cl)c(C(F)(F)F)c3)cc2)ccn1", "note": "[sorafenib]", "values": [{"measurement": "concentration at 120 min", "setting": "male, NZW, rabbit, cornea, topical, 50 μL, 120 min (2 h) post treatment, SD=±596", "result": 1710, "unit": "ng/g"}, {"measurement": "time of sorafenib maximum content in retina of treated eyes", "setting": "single 50 μL instillation in right eye", "result": 5, "unit": "min"}, {"measurement": "sorafenib maximum content in retina of treated eyes", "setting": "single 50 μL instillation in right eye, 5 min after treatment", "result": 170, "unit": "ng/g"}, {"measurement": "sorafenib in retina of left untreated eyes", "setting": "single 50 μL instillation in right eye, all rabbits", "result": "no amount of sorafenib was detected"}, {"measurement": "highest detected amount of sorafenib in plasma", "setting": "two hours after treatment", "result": 2, "unit": "ng/g"}]}]}
